Publication PMC5298231, “The Malaria Parasite's Lactate Transporter PfFNT Is the Target of Antiplasmodial Compounds Identified in Whole Cell Phenotypic Screens” (PLoS Pathogens, 2017)
Peptide text beside a SMILES is read from it.

System: erythrocytes infected with 3D7 trophozoites
Type: cell-based, Plasmodium falciparum
Settings: sheet Ratio; for Ratio of metabolite abundance, Exp1_1hr: Exp1, 1hr; for Ratio of metabolite abundance, Exp1_3hr: Exp1, 3hr; for Ratio of metabolite abundance, Exp1_6hr: Exp1, 6hr; for Ratio of metabolite abundance, Exp2_1hr: Exp2, 1hr; for Ratio of metabolite abundance, Exp2_3hr: Exp2, 3hr; for Ratio of metabolite abundance, Exp2_6hr: Exp2, 6hr; for Ratio of metabolite abundance, Exp3_1hr: Exp3, 1hr; for Ratio of metabolite abundance, Exp3_3hr: Exp3, 3hr; for Ratio of metabolite abundance, Exp3_6hr: Exp3, 6hr

With `N[C@@H](CCC(=O)O)C(=O)O` [Glutamate] the “Ratio of metabolite abundance, Exp1_1hr” value was 1.14, the “Ratio of metabolite abundance, Exp1_3hr” value was 0.9816 and the “Ratio of metabolite abundance, Exp1_6hr” value was 0.9735. The “Ratio of metabolite abundance, Exp2_1hr” value was 1.0715, the “Ratio of metabolite abundance, Exp2_3hr” value was 0.9058 and the “Ratio of metabolite abundance, Exp2_6hr” value was 0.8408. The “Ratio of metabolite abundance, Exp3_1hr” value was 1.009, the “Ratio of metabolite abundance, Exp3_3hr” value was 0.9619 and the “Ratio of metabolite abundance, Exp3_6hr” value was 1.158.
`O=C[C@H](O)COP(=O)(O)O` [Glyceraldehyde 3-phosphate] was tested, and the “Ratio of metabolite abundance, Exp1_1hr” value was 0.7448, the “Ratio of metabolite abundance, Exp1_3hr” value was 0.7431 and the “Ratio of metabolite abundance, Exp1_6hr” value was 0.4349. The “Ratio of metabolite abundance, Exp2_1hr” value was 0.5818, the “Ratio of metabolite abundance, Exp2_3hr” value was 0.6033 and the “Ratio of metabolite abundance, Exp2_6hr” value was 0.4986. For the same molecule, the “Ratio of metabolite abundance, Exp3_1hr” value was 0.4745, the “Ratio of metabolite abundance, Exp3_3hr” value was 0.6544 and the “Ratio of metabolite abundance, Exp3_6hr” value was 0.4238.
For `O=C(CO)COP(=O)(O)O` [Glycerone phosphate], the “Ratio of metabolite abundance, Exp1_1hr” value was 2.2, the “Ratio of metabolite abundance, Exp1_3hr” value was 2.096 and the “Ratio of metabolite abundance, Exp1_6hr” value was 0.8912. The “Ratio of metabolite abundance, Exp2_1hr” value was 1.254, the “Ratio of metabolite abundance, Exp2_3hr” value was 1.043 and the “Ratio of metabolite abundance, Exp2_6hr” value was 0.7007. For the same molecule, the “Ratio of metabolite abundance, Exp3_1hr” value was 1.243, the “Ratio of metabolite abundance, Exp3_3hr” value was 1.057 and the “Ratio of metabolite abundance, Exp3_6hr” value was 0.7275.
For `CC(C)C[C@H](NC(=O)[C@@H](N)Cc1cnc[nH]1)C(=O)N[C@@H](CC(=O)O)C(=O)O` [HLD] (H-His-Leu-Asp-OH), the “Ratio of metabolite abundance, Exp1_1hr” value was 0.6785, the “Ratio of metabolite abundance, Exp1_3hr” value was 0.3938 and the “Ratio of metabolite abundance, Exp1_6hr” value was 1.496. For the same molecule, the “Ratio of metabolite abundance, Exp2_1hr” value was 0.9181, the “Ratio of metabolite abundance, Exp2_3hr” value was 0.5663 and the “Ratio of metabolite abundance, Exp2_6hr” value was 1.359. The “Ratio of metabolite abundance, Exp3_1hr” value was 0.7775, the “Ratio of metabolite abundance, Exp3_3hr” value was 0.6588 and the “Ratio of metabolite abundance, Exp3_6hr” value was 1.57.
With `CC(C)[C@H](NC(=O)[C@@H](N)Cc1c[nH]cn1)C(=O)N[C@@H](CC(=O)O)C(=O)N[C@@H](CC(=O)O)C(=O)O` [HVDD] (H-HVDD-OH) the “Ratio of metabolite abundance, Exp1_1hr” value was 0.5307, the “Ratio of metabolite abundance, Exp1_3hr” value was 0.3298 and the “Ratio of metabolite abundance, Exp1_6hr” value was 0.7281. For the same molecule, the “Ratio of metabolite abundance, Exp2_1hr” value was 0.7593, the “Ratio of metabolite abundance, Exp2_3hr” value was 0.3961 and the “Ratio of metabolite abundance, Exp2_6hr” value was 1.162. For the same molecule, the “Ratio of metabolite abundance, Exp3_1hr” value was 0.6174, the “Ratio of metabolite abundance, Exp3_3hr” value was 0.4236 and the “Ratio of metabolite abundance, Exp3_6hr” value was 1.2463.
For `O=C(O)[C@@H]1CC(O)CN1` (stereo partly drawn) [Hydroxy-L-proline], the “Ratio of metabolite abundance, Exp1_1hr” value was 1.2334, the “Ratio of metabolite abundance, Exp1_3hr” value was 0.9688 and the “Ratio of metabolite abundance, Exp1_6hr” value was 0.6326. The “Ratio of metabolite abundance, Exp2_1hr” value was 1.182, the “Ratio of metabolite abundance, Exp2_3hr” value was 1.17 and the “Ratio of metabolite abundance, Exp2_6hr” value was 1.132. For the same molecule, the “Ratio of metabolite abundance, Exp3_1hr” value was 1.1402, the “Ratio of metabolite abundance, Exp3_3hr” value was 1.1046 and the “Ratio of metabolite abundance, Exp3_6hr” value was 1.082.
With `O=c1[nH]cnc2c1ncn2[C@@H]1O[C@H](COP(=O)(O)OP(=O)(O)O)[C@@H](O)[C@H]1O` [IDP] the “Ratio of metabolite abundance, Exp1_1hr” value was 0.8853, the “Ratio of metabolite abundance, Exp1_3hr” value was 1.384 and the “Ratio of metabolite abundance, Exp1_6hr” value was 1.314. For the same molecule, the “Ratio of metabolite abundance, Exp2_1hr” value was 0.5363, the “Ratio of metabolite abundance, Exp2_3hr” value was 0.6148 and the “Ratio of metabolite abundance, Exp2_6hr” value was 0.824. For the same molecule, the “Ratio of metabolite abundance, Exp3_1hr” value was 1.461, the “Ratio of metabolite abundance, Exp3_3hr” value was 1.458 and the “Ratio of metabolite abundance, Exp3_6hr” value was 1.561.
In the case of `CC(C)C[C@H](N)C(=O)N[C@@H](CC(=O)O)C(=O)O` [LD] (H-Leu-Asp-OH), the “Ratio of metabolite abundance, Exp1_1hr” value is reported as 1.295, the “Ratio of metabolite abundance, Exp1_3hr” value is reported as 0.7458 and the “Ratio of metabolite abundance, Exp1_6hr” value is reported as 0.9103. For the same molecule, the “Ratio of metabolite abundance, Exp2_1hr” value was 1.486, the “Ratio of metabolite abundance, Exp2_3hr” value was 1.077 and the “Ratio of metabolite abundance, Exp2_6hr” value was 1.185. The “Ratio of metabolite abundance, Exp3_1hr” value was 1.151, the “Ratio of metabolite abundance, Exp3_3hr” value was 1.268 and the “Ratio of metabolite abundance, Exp3_6hr” value was 1.201.
In the case of `CC(O)C(=O)O` (stereo not drawn) [Lactate], the “Ratio of metabolite abundance, Exp1_1hr” value is reported as 8.023, the “Ratio of metabolite abundance, Exp1_3hr” value is reported as 5.339 and the “Ratio of metabolite abundance, Exp1_6hr” value is reported as 5.015. The “Ratio of metabolite abundance, Exp2_1hr” value was 5.913, the “Ratio of metabolite abundance, Exp2_3hr” value was 7.877 and the “Ratio of metabolite abundance, Exp2_6hr” value was 8.247. For the same molecule, the “Ratio of metabolite abundance, Exp3_1hr” value was 2.842, the “Ratio of metabolite abundance, Exp3_3hr” value was 5.6661 and the “Ratio of metabolite abundance, Exp3_6hr” value was 4.424.
With `CC(=O)N[C@@H](CCC(=O)O)C(=O)O` [N-Acetyl-glutamate] the “Ratio of metabolite abundance, Exp1_1hr” value was 1.252, the “Ratio of metabolite abundance, Exp1_3hr” value was 0.8243 and the “Ratio of metabolite abundance, Exp1_6hr” value was 0.4492. For the same molecule, the “Ratio of metabolite abundance, Exp2_1hr” value was 1.417, the “Ratio of metabolite abundance, Exp2_3hr” value was 0.7877 and the “Ratio of metabolite abundance, Exp2_6hr” value was 0.6113. For the same molecule, the “Ratio of metabolite abundance, Exp3_1hr” value was 0.5549, the “Ratio of metabolite abundance, Exp3_3hr” value was 0.2844 and the “Ratio of metabolite abundance, Exp3_6hr” value was 0.3771.
In the case of `NC(=O)N[C@@H](CC(=O)O)C(=O)O` [N-Carbamoyl-L-aspartate], the “Ratio of metabolite abundance, Exp1_1hr” value is reported as 0.3523, the “Ratio of metabolite abundance, Exp1_3hr” value is reported as 0.4866 and the “Ratio of metabolite abundance, Exp1_6hr” value is reported as 0.4355. For the same molecule, the “Ratio of metabolite abundance, Exp2_1hr” value was 0.4532, the “Ratio of metabolite abundance, Exp2_3hr” value was 0.2641 and the “Ratio of metabolite abundance, Exp2_6hr” value was 0.4319. For the same molecule, the “Ratio of metabolite abundance, Exp3_1hr” value was 0.3568, the “Ratio of metabolite abundance, Exp3_3hr” value was 0.3426 and the “Ratio of metabolite abundance, Exp3_6hr” value was 0.2976.
In the case of `NC(=O)c1ccc[n+]([C@@H]2O[C@H](COP(=O)([O-])OP(=O)(O)OC[C@H]3O[C@@H](n4cnc5c(N)ncnc54)[C@H](O)[C@@H]3O)[C@@H](O)[C@H]2O)c1` [NAD+], the “Ratio of metabolite abundance, Exp1_1hr” value is reported as 1.033, the “Ratio of metabolite abundance, Exp1_3hr” value is reported as 0.9084 and the “Ratio of metabolite abundance, Exp1_6hr” value is reported as 1.09. The “Ratio of metabolite abundance, Exp2_1hr” value was 0.9571, the “Ratio of metabolite abundance, Exp2_3hr” value was 1.088 and the “Ratio of metabolite abundance, Exp2_6hr” value was 1.117. The “Ratio of metabolite abundance, Exp3_1hr” value was 1.081, the “Ratio of metabolite abundance, Exp3_3hr” value was 1.082 and the “Ratio of metabolite abundance, Exp3_6hr” value was 1.084.
